Assay results from ChEMBL document CHEMBL1201862, “PubChem BioAssay data set” (2004).
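These data come from cells grown in 96-well plates and exposed to compound for 48 hours at five concentrations. Abbreviation: GI50, concentration required for 50% inhibition of growth.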 Activity calls are given as the source filed them. Cut-off read from the data, not from the text of the source: active = GI50 up to about 1.1 µM and inactive = higher.

What was measured:
Assay in all cases: NCI tumour cell line growth inhibition, 48 h
[1] = system: NCI-H460
[2] = system: NCI-H226
[3] = system: ACHN
[4] = system: M14
[5] = system: EKVX
[6] = system: OVCAR-4
[7] = system: BT-549
[8] = system: SK-MEL-2
[9] = system: SK-OV-3
[10] = system: NCI/ADR-RES
[11] = system: MDA-MB-231
[12] = system: U-251
[13] = system: 786-0
[14] = system: SNB-19
[15] = system: HOP-62
[16] = system: A549
[17] = system: HL-60
[18] = system: HT-29
[19] = system: OVCAR-3
[20] = system: OVCAR-8
[21] = system: NCI-H23
[22] = system: OVCAR-5
[23] = system: TK-10
[24] = system: Hs-578T
[25] = system: HCT-15
[26] = system: DU-145
[27] = system: PC-3
[28] = system: SF-295
[29] = system: K562
[30] = system: UACC-62
[31] = system: SF-539
[32] = system: HOP-92
[33] = system: UACC-257
[34] = system: SNB-75
[35] = system: SK-MEL-28
[36] = system: MOLT-4
[37] = system: UO-31
[38] = system: LOX IMVI
[39] = system: HCT-116
[40] = system: Malme-3M
[41] = system: SN12C
[42] = system: CCRF-CEM
[43] = system: SW-620
[44] = system: RPMI-8226
[45] = system: IGROV-1
[46] = system: CAKI-1
[47] = system: MDA-MB-435
[48] = system: COLO 205
[49] = system: SK-MEL-5
[50] = system: NCI-H522
[51] = system: RXF 393
[52] = system: KM12
[53] = system: MCF7
[54] = system: T47D
[55] = system: SF-268
[56] = system: SR
[57] = system: HCC 2998

Measured: GI50

COc1ccc(CNc2nc(NC3CCCCC3)nc(NC3CCCCC3)n2)cc1
2.13 µM: [25]
inactive: [1] 3.44 µM | [2] 2.99 µM | [3] 5.35 µM | [4] 4.42 µM | [5] 4.78 µM | [6] 4.02 µM | [7] 8.53 µM | [8] 11.4 µM | [9] > 100 µM | [10] 4.24 µM | [11] 3.44 µM | [12] 4.06 µM | [13] 5.71 µM | [14] > 100 µM | [15] 8.18 µM | [16] 5.38 µM | [17] 4.88 µM | [18] 2.61 µM | [19] 11.3 µM | [20] 15.4 µM | [21] 2.4 µM | [22] 4.06 µM | [23] 10 µM | [24] 7.29 µM | [26] 5.6 µM | [27] 5.15 µM | [28] 9.66 µM | [29] 5.08 µM | [30] 6.46 µM | [31] 8.28 µM | [32] 8.75 µM | [33] 13.9 µM | [34] 8.81 µM | [35] 20.6 µM | [36] 4.25 µM | [37] 3.57 µM | [38] 1.79 µM | [39] 2.85 µM | [40] 9.25 µM | [41] 6.53 µM | [42] 4.63 µM | [43] 4.19 µM | [44] 2.66 µM | [45] 4.76 µM | [46] 5.14 µM | [47] 21.8 µM | [48] 3.62 µM | [49] 3.56 µM | [50] 4.31 µM | [51] 3.09 µM | [52] 1.21 µM | [53] 3.78 µM | [54] 3.41 µM | [55] 6.46 µM

CCOC(=O)N1C=CC(=C2C(=C3C=CN(C(=O)OCC)C=C3)C(=C3C=CN(C(=O)OCC)C=C3)C2=C2C=CN(C(=O)OCC)C=C2)C=C1
active: [32] 0.0637 µM
12.4 µM: [25]
inactive: [1] 22.9 µM | [2] 22.3 µM | [3] 2.98 µM | [4] 28.3 µM | [5] 48.5 µM | [6] 38 µM | [7] 40.5 µM | [8] 26.8 µM | [9] 44 µM | [10] 22.4 µM | [11] 10.4 µM | [12] 13.7 µM | [13] 28.6 µM | [14] 64.6 µM | [15] 25.9 µM | [16] 24.4 µM | [17] 33 µM | [18] 22.2 µM | [19] 22.4 µM | [20] 27.1 µM | [21] 26.2 µM | [22] 36.8 µM | [23] 26 µM | [24] 16 µM | [56] 6.24 µM | [26] 35.3 µM | [27] 17.1 µM | [28] 21.8 µM | [29] 23.8 µM | [30] 16.9 µM | [31] 25 µM | [33] 34.1 µM | [34] 47.1 µM | [35] 27.5 µM | [36] 16.9 µM | [37] 12.9 µM | [38] 12.2 µM | [39] 11.1 µM | [40] 13.5 µM | [41] 20.2 µM | [43] 17 µM | [45] 16.1 µM | [46] 16.7 µM | [47] 22.2 µM | [48] 23.1 µM | [49] 26.5 µM | [50] 19.1 µM | [51] 51.5 µM | [52] 22.1 µM | [53] 35.6 µM | [54] 36.5 µM | [55] 31.5 µM

COc1cc(OC)c2[nH]c3c(O)c(-c4c(C)cc5c([nH]c6c(OC)cc(OC)cc65)c4O)c(C)cc3c2c1
inactive: [1] 8.55 µM | [2] 9.08 µM | [3] 8.77 µM | [4] 8.38 µM | [5] 6.22 µM | [6] 9.42 µM | [7] 9.02 µM | [8] 9.25 µM | [10] 8.77 µM | [11] 9.23 µM | [12] 11.7 µM | [13] 8.3 µM | [15] 10.3 µM | [16] 6.49 µM | [19] 8.87 µM | [20] 8.43 µM | [23] 10.1 µM | [24] 9.44 µM | [26] 7.87 µM | [27] 7.91 µM | [57] 8.51 µM | [31] 9.42 µM | [32] 8.73 µM | [33] 9.33 µM | [34] 7.89 µM | [35] 9.38 µM | [38] 7.89 µM | [39] 8.81 µM | [43] 9.35 µM | [45] 7.18 µM | [50] 9.06 µM | [51] 9.12 µM | [52] 9.4 µM | [54] 8.85 µM | [55] 8.39 µM
